Source: patent publication US20050069907A1, “Methods for using double-mutant RNA polymerases with reduced discrimination between non-canonical and canonical nucleoside triphosphates” (priority 2002, published 2005)

Test system: Bgl II-cut pPK5
Assay: Run-off transcription with 2′-OMe- or 2′-azido-NTPs on Bgl II-cut pPK5
Type: biochemical
Method: RNAPs were prepared as described (Brieba, L G, and Sousa, R. Biochemistry, 39: 919-923, 2000). Transcription reactions were carried out for 30 min. at room temperature in 40 mM Tris-Cl, pH 8.0, 6 mM MgCl2, 10 mM NaCl, 2 mM spermidine, with templates at 10^−7 M and RNAPs at 2×10^−7 M. All NTPs were used at 0.5 mM, and transcripts were labeled by inclusion of 1% v/v 800 Ci/mM […] in the reaction. Modified NTPs were from Trilink Biotechnologies. Reactions were stopped by addition of an equal volume of 90% formamide, 50 mM EDTA, 0.01% xylene cyanol, resolved by electrophoresis in 20% acrylamide, 1% bis-acrylamide, 1×TBE gels, and visualized on a Molecular Dynamics Phosphorimager.
The ability of the wild-type, Y639F and Y639F/H784A mutants to utilize 2′-OMe-UTP and 2′-OMe-CTP, and 2′-azido-UTP and 2′-azido-CTP in RNA synthesis was tested. On a Bgl II-cut pPK5 (Mentesanas, P. E., et al., “Characterization of Bacteriophage T7 RNA Polymerase Elongation Complexes,” J. Mol. Biol. 302:1049-1062, 2000) template in which CTP and UTP are first incorporated at +14 and +15, respectively, the wild-type enzyme can synthesize 34 nucleotide (nt) run-off transcripts in reactions in which UTP is replaced with 2′-OMe-UTP (FIG. 2a, lane 2) or in reactions in which CTP is replaced with 2′-OMe-CTP (FIG. 2a, lane 3). Relative to the reaction with 4 NTPs (FIG. 2a, lane 1), yields of run-off transcripts are reduced 6-fold and 21-fold in the 2′-OMe-UTP and 2′-OMe-CTP reactions, respectively. When both UTP and CTP are replaced with the corresponding 2′-OMe-NTPs, run-off transcription with the wild-type enzyme is undetectable (FIG. 2a, lane 4). Terminated transcripts are seen in these reactions at positions where 2′-OMe-UMP or 2′-OMe-CMP are incorporated (FIG. 2a, lanes 2-4). The Y639F mutation enhances utilization of the 2′-OMe-NTPs: relative to reactions with 4 NTPs (FIG. 2a, lane 5) runoff transcription with Y639F is reduced, respectively: 2-fold, 8-fold, and 55-fold in reactions with 2′-OMe-UTP, 2′-OMe-CTP, or both (FIG. 2a, lanes 6-8). With the Y639F/H784A double mutant the reduction in run-off transcript synthesis is <15% in reactions with 2′-OMe-UTP (FIG. 2a, lane 10), and only 3-fold and 6-fold in reactions with, respectively, 2′-OMe-CTP or both 2′-OMe-UTP and 2′-OMe-CTP (FIG. 2a, lanes 11, 12).
Identical experiments were carried out with 2′-azido-UTP or 2′-azido-CTP replacing UTP or CTP, respectively (FIG. 2b). With the wild-type enzyme, run-off transcription was reduced 15- and 50-fold in reactions with 2′-azido-UTP or 2′-azido-CTP, respectively (FIG. 2b; lanes 2, 3), and was undetectable in reactions with both 2′-azido-UTP and 2′-azido-CTP (FIG. 2b; lane 4). With Y639F, use of 2′-azido-UTP or 2′-azido-CTP reduced run-off transcription by 70% (FIG. 2b; lanes 6, 7) compared to reactions with 4 NTPs (FIG. 2b; lane 5), while use of both 2′-azido-UTP and 2′-azido-CTP reduced runoff transcription by 11-fold (FIG. 2b, lane 8). With Y639F/H784A use of a single azido-modified NTP reduced run-off transcription by only 40% (FIG. 2b; lanes 10, 11), while use of two 2′-azido-NTPs reduced it by 3-fold (FIG. 2b; lane 12).

[1] = both 2′-azido-UTP and 2′-azido-CTP

Substance | Reduction of run-off transcript yield relative to 4 NTPs (2′-OMe-CTP replacing CTP) | Reduction of run-off transcript yield relative to 4 NTPs (2′-OMe-UTP replacing UTP) | Reduction of run-off transcription (2′-azido-CTP replacing CTP) | Reduction of run-off transcription (2′-azido-UTP replacing UTP) | Reduction of run-off transcript yield relative to 4 NTPs (both 2′-OMe-UTP and 2′-OMe-CTP) | Reduction of run-off transcription [1] | Reduction of run-off transcription (single azido-modified NTP (2′-azido-UTP or 2′-azido-CTP))
W.T.: wild-type T7 RNA polymerase [reference compound] | 21 fold | 6 fold | 50 fold | 15 fold | undetectable | undetectable | 
Y639F: T7 RNAP with wild-type tyrosine at position 639 substituted by phenylalanine | 8 fold | 2 fold |  |  | 55 fold | 11 fold | 70%
